What all share (format): cell-based, human
One test concerns cell line Z2. Put plainly: Differentiation of cell line Z2 with individual differentiation factors, Illumina microarray readout. The text has this: (§1) To reduce variations in gene expression due to cell cycle artifacts, and to capture an early gene expression profile of the cells, upon being expanded to six well plates, on the day the cells reached confluence, the cells were placed in media with a reduction of serum to 0.5% in the case where the original serum concentration was >5%. In all other cases, serum and/or other growth factors was reduced to 10% of their original values. These quiescence conditions were imposed for five days and all cultures were re-fed two days prior to harvest to reduce feeding difference artifacts. So, by way of example, if the original media was DMEM medium with 10% FCS, then the quiescence synchronization media was DMEM with 0.5% FCS. Total RNA was extracted directly from cells growing in 6-well or 6 cm tissue culture plates using Qiagen Rneasy mini kits according to the manufacturer's instructions. RNA concentrations were measured using a Beckman DU530 or Nanodrop spectrophotometer and RNA quality determined by denaturing agarose gel electrophoresis or an Agilent 2100 bioanalyzer. Whole-genome expression analysis was carried out using Affymetrix Human Genome U133 Plus 2.0 GeneChip® system, Illumina Human-6 v1 and HumanRef-8 v1 Beadchips (Illumina 1), and Illumina Human-6 v2 Beadchips (Illumina 2), and RNA levels for certain genes were confirmed by quantitative PCR. For Illumina BeadArrays, total RNA was linearly amplified and biotin-labeled using Illumina TotalPrep kits (Ambion), and cRNA was quality controlled using an Agilent 2100 Bioanalyzer. cRNA was hybridized to Illumina BeadChips, processed, and read using a BeadStation array reader according to the manufacturer's instructions (Illumina). Relative Fluorescence Unit (RFU) values for all of the cell lines with common probe sets were quantile normalized.
The cell lines of the present invention 7SMOO7 (also designated ACTC298 and used at P18), C4.4 (also designated ACTC87 and used at P14), E44 (also designated ACTC170 and used at P18), E69 (also designated ACTC101 and used at P15), SK17 (also designated ACTC162 and used at P14), SK31 (also designated ACTC164 used at P15), SM35 (also designated ACTC260 used at P12), T36 (also designated ACTC198 used at P19), T43 (also designated ACTC120 used at P17), W11 (also designated ACTC197 used at P12), and Z2 (also designated ACTC255 used at P12), are cultured to five day quiescence as described herein or alternatively exposed to differentiation conditions of Differentiation Factor Protocol I in Table VIII. […] RNA was isolated as described herein and analyzed by Illumina microarrays. […]

The next test deals with cell line SK17. Description: Differentiation of cell line SK17 with individual differentiation factors, Illumina microarray readout. The note with it: SK17, after day 14, retinoic acid added (1.0 uM).
Excerpt: as §1, with “So, by way of example, if the original media was DMEM medium with 10% FCS, then the quiescence synchronization media was DMEM with 0.5% FCS. Total RNA was extracted directly from cells growing in 6-well or 6 cm tissue culture plates using Qiagen Rneasy mini kits according to the manufacturer's instructions.” left out, “Relative Fluorescence Unit (RFU) values for all of the cell lines with common probe sets were quantile normalized.” left out

The test system of a further test is cell line B16. Description: Differentiation of cell line B16 in gels containing crosslinked hyaluronic acid and gelatin. The note with it: B16, hyaluronic acid/gelatin hydrogel, in the presence of retinoic acid. The text has this:
The cell line of the present invention designated B16 (ACTC59) that expresses the unique pattern of markers MKX (accession number NM_173576.1), CDH10 (accession number NM_006727.2), MEG3 (accession number NR_002766.1), SCUBE3 (accession number NM_152753.2), and distal HOX genes HOXA11 (accession number NM_000522.3), and HOXD11 (accession number NM_021192.2) when synchronized at quiescence as described herein by culturing 5 days at confluence in DMEM medium with 0.5% serum at passage 16-19 was differentiated in micromass conditions and in a hydrogel containing crosslinked hyaluronic acid and gelatin with supplemented growth factors from Table III as described in Table VIII under the headings “In vitro conditions to induce chondrogenenesis—Micromass Culture” and “Differentiation in gels containing crosslinked hyaluronic acid and gelatin” in the presence of TGFβ3 and retinoic acid as also described in Table VIII under the subheadings “Differentiation in Hydrogels Containing Crosslinked Hyaluronic Acid and Gelatin to Induce Chondrogenesis” and “Retinoic acid and EGF-Containing HyStem-CSS” respectively. […]

The test system of a further test is W10 cell line. Put plainly: Differentiation of cell line W10, two weeks of culture with retinoic acid. The note with it: 1.0 uM all trans retinoic acid. From the text:
The HAND2 and SCARA5 positive cell line W10 (also known as ACTC196) whose most distal HOX gene expression was HOXA4, B7, which is described in U.S. patent application Ser. No. 12/504,630 filed on Jul. 16, 2009 and titled “Methods to Accelerate the Isolation of Novel Cell Strains from Pluripotent Stem Cells and Cells Obtained Thereby”, incorporated herein by reference in its entirety, and whose gene expression markers at 18-21 doublings of clonal expansion are disclosed in Table 1, was passaged to P14. […] cells for 14 days under conditions described as In vitro conditions to induce chondrogenenesis—Micromass Culture in Table VIII, that are expected to cause chondrogenic differentiation in cells capable of such differentiation. […] The presence of MYH11 was confirmed by immunocytochemistry.

The mark [1] stands for this setting: Z2 (P12), 14 days, EGF 100 ng/ml, RFU >150 considered positive.

`CC1=C(/C=C/C(C)=C/C=C/C(C)=C/C(=O)O)C(C)(C)CCC1` [retinoic acid, all-trans retinoic acid]: the “BMP7 expression by microarray” value in the test with cell line Z2 (Z2, 14 days, 1.0 uM retinoic acid) was determined as 271 RFU. Besides, in the test on cell line SK17, the “MYH11 (smooth muscle marker) expression by microarray” value was 1715 RFUs and the “renin (REN) expression by microarray” value was “markedly upregulated”. Besides, the “NPPB (natriuretic peptide precursor B) expression” value with cell line B16 is on record as 11,851 RFUs. Besides, the MYH11 expression entry in the test on W10 cell line is “induction of MYH11”.
As for “bFGF: growth factor used as individual differentiation factor”, in the test on cell line Z2 (Z2, 14 days, 10 ng/mL bFGF), the “BMP7 expression by microarray” value is 196 RFU.
Regarding “recombinant human EGF: recombinant human EGF used as differentiation factor”, in the test with cell line Z2 (setting [1]), the “BMP2 expression by microarray” value came out at 1015 RFU and the “BMP7 expression by microarray” value was determined as 1084 RFU.

(Values after patent US10920191B2, “Methods of screening embryonic progenitor cell lines” (LINEAGE CELL THERAPEUTICS, INC., priority 2008, dated 2021).)
